Data published in article PMC11078746 (Nature, 2024).
Several values for one entry are separate records, joined by “and”; a condition that tells them apart may be missing. Identical values can stand only once.

Assays:
Assay in all cases: MSI xenograft model efficacy
Assay type in all cases: in vivo, mouse
1119-HX xenograft = settings: colorectal carcinoma, 60 or 120 mg/kg
Experimental: (§1) All animal studies were conducted in accordance with ethics and procedures covered by permit BS-2275 and BS-1975 issued by the Kantonales Veterinäramt Basel-Stadt and in strict adherence to guidelines of the Eidgenössisches Tierschutzgesetz and the Eidgenössische Tierschutzverordnung, Switzerland. All animal studies were approved by the internal ethics committee. All animals had access to food and water ad libitum and were identified with transponders. They were housed in a specific-pathogen-free facility in IVC racks under a 12 h–12 h light–dark cycle. To establish cell-line-derived xenograft models, 6–7-week-old female athymic nude (Crl:NU(NCr)-Foxn1^nu) or SCID-BEIGE (CB17.Cg-PrkdcscidLystbg-J/Crl) mice from Charles River were engrafted subcutaneously with 5 million tumour cells in HBSS (H6648, Sigma-Aldrich). For SNU-407, Lovo, IM95, RL95.2, Ishikawa and IGROV-1, the cells were concentrated in 50% Matrigel (354234, Corning). Patient-derived xenografts were induced and expanded by transplantation as previously described. […] For the efficacy experiment, mice were randomized into groups (n = 5–6) for a mean tumour size of 100–150 mm^3. […] Blood samples were collected on day 7 and 91. […] Tumour responses are reported with the measures of tumour volumes from the treatment start. […] Animals were randomized (n = 3) and tumour samples were collected at 0, 1, 4, 8 and 24 h on the first day and then collected 4 h after the last treatment on day 3, 8, 10, 14 (including a 24 h timepoint), 17 and 21. Tumours were excised, weighed, either frozen in liquid nitrogen and cryogenic dry pulverized with the CryoPrep system (model CP-02, Covaris) or processed to FFPE after fixation. […] On day 12, blood samples were collected for PK analysis. On the last day (3 h after the last treatment), tumours were excised, weighed, frozen in liquid nitrogen and cryogenic dry pulverized for PD analysis.

23132/87 xenograft = settings: 23132/87, Gastric carcinoma; 60 or 120 mg/kg
Experimental: as §1

3205-HX xenograft = settings: colorectal carcinoma, 60 or 120 mg/kg
Experimental: as §1

5495-HX xenograft = settings: colorectal carcinoma, 60 or 120 mg/kg
Experimental: as §1

HCT116 TP53 WT xenograft = settings: for Mean TVol / Tumour volume (TVol): HCT116 WT, 60 mpk; for Tumour volume (TVol): single mouse, 60 mg/kg
Experimental: as §1

[1] = tested on: HCT116 TP53 null xenograft; settings: for Mean TVol / Tumour volume (TVol): HCT116 p53 null, 60 mpk; for Tumour volume (TVol): single mouse, 60 mg/kg
Experimental: as §1

HEC6 xenograft = settings: HEC6, Endometrial carcinoma; 60 or 120 mg/kg
Experimental: as §1

IM95 xenograft = settings: IM95, Gastric carcinoma; 60 or 120 mg/kg
Experimental: as §1

JHUEM2 xenograft = settings: JHUEM2, Endometrial carcinoma; 60 or 120 mg/kg
Experimental: as §1

LIM2405 xenograft = settings: LIM2405, colorectal carcinoma; 60 or 120 mg/kg
Experimental: as §1

LoVo xenograft = settings: colorectal carcinoma, 60 or 120 mg/kg
Experimental: as §1

OVK18 xenograft = settings: OVK18, Ovarian carcinoma; 60 or 120 mg/kg
Experimental: as §1

RKO xenograft = settings: colorectal carcinoma, 60 or 120 mg/kg
Experimental: as §1

RL95.2 xenograft = settings: RL95.2, Endometrial carcinoma; 60 or 120 mg/kg
Experimental: as §1

TOV21G xenograft = settings: Ovarian carcinoma, 60 or 120 mg/kg
Experimental: as §1

For `CCc1c(N2CCN(C(=O)c3ncnc(C)c3O)CC2)c(=O)n2nc(C3=CCOCC3)nc2n1CC(=O)Nc1ccc(C(F)(F)F)cc1Cl` [HRO761], the Best average response (1119-HX xenograft) was -14, the Best average response (23132/87 xenograft) was 200 and the Best average response (3205-HX xenograft) was 400. For the same compound, the Best average response (5495-HX xenograft) was -50, the Best average response (HCT116 TP53 WT xenograft; HCT116 P53 WT, colorectal carcinoma, 60 or 120 mg/kg) was -60 and the “Mean TVol” value (HCT116 TP53 WT xenograft; day 0) was 219.01 mm3. For the same compound, the “Tumour volume (TVol)” value (HCT116 TP53 WT xenograft; day 0 post 1st dose) was 93.52 mm3 and 234.39 mm3 and 157.76 mm3 and 320.89 mm3 and 161.54 mm3 and 345.97 mm3, the “Mean TVol” value (HCT116 TP53 WT xenograft; day 3) was 281.33 mm3 and the “Tumour volume (TVol)” value (HCT116 TP53 WT xenograft; day 3) was 104.72 mm3 and 379.81 mm3 and 232.95 mm3 and 368.27 mm3 and 173.78 mm3 and 428.47 mm3. The “Mean TVol” value (HCT116 TP53 WT xenograft; day 7) was 242.31 mm3, the “Tumour volume (TVol)” value (HCT116 TP53 WT xenograft; day 7) was 103.44 mm3 and 369.23 mm3 and 158.31 mm3 and 312.72 mm3 and the “Mean TVol” value (HCT116 TP53 WT xenograft; day 10) was 237.77 mm3. For the same compound, the “Mean TVol” value (HCT116 TP53 WT xenograft; day 14) was 208.41 mm3, the “Tumour volume (TVol)” value (HCT116 TP53 WT xenograft; day 14) was 70.08 mm3 and 324.15 mm3 and 133.86 mm3 and 295.48 mm3 and 98.69 mm3 and 328.18 mm3 and the “Mean TVol” value (HCT116 TP53 WT xenograft; day 17) was 206.85 mm3. For the same compound, the “Tumour volume (TVol)” value (HCT116 TP53 WT xenograft; day 17) was 71.54 mm3 and 333.55 mm3 and 123.78 mm3 and 277.24 mm3 and 67.49 mm3 and 367.52 mm3, the “Mean TVol” value (HCT116 TP53 WT xenograft; day 21) was 182.16 mm3 and the “Tumour volume (TVol)” value (HCT116 TP53 WT xenograft; day 21) was 68.28 mm3 and 318.05 mm3 and 133.60 mm3 and 239.83 mm3 and 55.74 mm3 and 277.43 mm3. For the same compound, the “Mean TVol” value (HCT116 TP53 WT xenograft; day 24) was 152.12 mm3, the “Tumour volume (TVol)” value (HCT116 TP53 WT xenograft; day 24) was 51.97 mm3 and 322.25 mm3 and 104.45 mm3 and 220.64 mm3 and 35.09 mm3 and 178.30 mm3 and the “Mean TVol” value (HCT116 TP53 WT xenograft; day 29) was 108.49 mm3. The “Tumour volume (TVol)” value (HCT116 TP53 WT xenograft; day 29) was 53.97 mm3 and 224.74 mm3 and 66.70 mm3 and 182.17 mm3 and 28.07 mm3 and 95.29 mm3, the “Mean TVol” value (HCT116 TP53 WT xenograft; day 31) was 115.60 mm3 and the “Tumour volume (TVol)” value (HCT116 TP53 WT xenograft; day 31) was 67.20 mm3 and 248.87 mm3 and 79.67 mm3 and 165.88 mm3 and 35.96 mm3 and 96.04 mm3. The “Mean TVol” value (HCT116 TP53 WT xenograft; day 35) was 82.07 mm3, the “Tumour volume (TVol)” value (HCT116 TP53 WT xenograft; day 35) was 74.11 mm3 and 171.12 mm3 and 62.35 mm3 and 120.74 mm3 and 20.08 mm3 and 43.99 mm3 and the “Mean TVol” value (HCT116 TP53 WT xenograft; day 38) was 85.39 mm3. The “Tumour volume (TVol)” value (HCT116 TP53 WT xenograft; day 38) was 95.75 mm3 and 187.18 mm3 and 54.75 mm3 and 135.21 mm3 and 15.88 mm3 and 23.55 mm3, the “Mean TVol” value (HCT116 TP53 WT xenograft; day 42) was 74.87 mm3 and the “Tumour volume (TVol)” value (HCT116 TP53 WT xenograft; day 42) was 111.35 mm3 and 127.20 mm3 and 44.64 mm3 and 140.38 mm3 and 12.27 mm3 and 13.40 mm3. The “Mean TVol” value (HCT116 TP53 WT xenograft; day 45) was 100.30 mm3, the “Tumour volume (TVol)” value (HCT116 TP53 WT xenograft; day 45) was 197.14 mm3 and 123.97 mm3 and 48.50 mm3 and 218.58 mm3 and 10.09 mm3 and 3.53 mm3 and the “Mean TVol” value (HCT116 TP53 WT xenograft; day 49) was 121.82 mm3. The “Tumour volume (TVol)” value (HCT116 TP53 WT xenograft; day 49) was 316.70 mm3 and 100.63 mm3 and 72.22 mm3 and 229.46 mm3 and 10.59 mm3 and 1.31 mm3, the “Mean TVol” value (HCT116 TP53 WT xenograft; day 53) was 194.25 mm3 and the “Tumour volume (TVol)” value (HCT116 TP53 WT xenograft; day 53) was 483.74 mm3 and 180.66 mm3 and 93.29 mm3 and 393.80 mm3 and 13.76 mm3 and 0.25 mm3. For the same compound, the “Mean TVol” value (HCT116 TP53 WT xenograft; day 56) was 269.54 mm3, the “Tumour volume (TVol)” value (HCT116 TP53 WT xenograft; day 56) was 671.24 mm3 and 160.85 mm3 and 148.76 mm3 and 618.00 mm3 and 18.36 mm3 and 0.00 mm3 and the “Mean TVol” value (HCT116 TP53 WT xenograft; day 60) was 408.84 mm3. The “Tumour volume (TVol)” value (HCT116 TP53 WT xenograft; day 60) was 1070.44 mm3 and 236.23 mm3 and 249.04 mm3 and 872.91 mm3 and 24.42 mm3 and 0.00 mm3, the Best average response ([1]; HCT116 P53 null, colorectal carcinoma, 60 or 120 mg/kg) was -100 and the “Mean TVol” value ([1]; day 0) was 151.89 mm3. The “Tumour volume (TVol)” value ([1]; day 0) was 114.28 mm3 and 172.75 mm3 and 98.96 mm3 and 162.60 mm3 and 112.69 mm3 and 250.04 mm3, the “Mean TVol” value ([1]; day 3) was 243.48 mm3 and the “Tumour volume (TVol)” value ([1]; day 3) was 162.58 mm3 and 332.14 mm3 and 148.24 mm3 and 251.18 mm3 and 212.27 mm3 and 354.49 mm3. For the same compound, the “Mean TVol” value ([1]; day 7) was 201.27 mm3, the “Tumour volume (TVol)” value ([1]; day 7) was 115.63 mm3 and 278.64 mm3 and 112.69 mm3 and 190.13 mm3 and the “Mean TVol” value ([1]; day 10) was 167.32 mm3. The “Mean TVol” value ([1]; day 14) was 78.55 mm3, the “Tumour volume (TVol)” value ([1]; day 14) was 57.94 mm3 and 66.94 mm3 and 44.25 mm3 and 61.17 mm3 and 71.26 mm3 and 169.76 mm3 and the “Mean TVol” value ([1]; day 17) was 56.92 mm3. The “Tumour volume (TVol)” value ([1]; day 17) was 38.70 mm3 and 22.79 mm3 and 27.88 mm3 and 45.55 mm3 and 49.32 mm3 and 157.29 mm3, the “Mean TVol” value ([1]; day 21) was 29.14 mm3 and the “Tumour volume (TVol)” value ([1]; day 21) was 20.42 mm3 and 11.20 mm3 and 10.29 mm3 and 21.47 mm3 and 18.24 mm3 and 93.23 mm3. For the same compound, the “Mean TVol” value ([1]; day 24) was 15.47 mm3, the “Tumour volume (TVol)” value ([1]; day 24) was 13.85 mm3 and 5.24 mm3 and 5.28 mm3 and 4.25 mm3 and 8.53 mm3 and 55.64 mm3 and the “Mean TVol” value ([1]; day 29) was 6.87 mm3. For the same compound, the “Tumour volume (TVol)” value ([1]; day 29) was 2.43 mm3 and 4.29 mm3 and 1.21 mm3 and 1.27 mm3 and 2.76 mm3 and 29.26 mm3, the “Mean TVol” value ([1]; day 31) was 4.02 mm3 and the “Tumour volume (TVol)” value ([1]; day 31) was 2.71 mm3 and 2.05 mm3 and 0.39 mm3 and 0.99 mm3 and 0.92 mm3 and 17.07 mm3. For the same compound, the “Mean TVol” value ([1]; day 35) was 3.16 mm3, the “Tumour volume (TVol)” value ([1]; day 35) was 1.81 mm3 and 0.00 mm3 (2×) and 0.17 mm3 and 0.75 mm3 and 16.24 mm3 and the “Mean TVol” value ([1]; day 38) was 4.17 mm3. For the same compound, the “Tumour volume (TVol)” value ([1]; day 38) was 0.58 mm3 and 0.00 mm3 (3×) and 1.01 mm3 and 23.40 mm3, the “Mean TVol” value ([1]; day 42) was 4.73 mm3 and the “Tumour volume (TVol)” value ([1]; day 42) was 0.90 mm3 and 0.00 mm3 (4×) and 27.46 mm3. For the same compound, the “Mean TVol” value ([1]; day 45) was 6.85 mm3, the “Tumour volume (TVol)” value ([1]; day 45) was 1.68 mm3 and 0.00 mm3 (4×) and 39.40 mm3 and the “Mean TVol” value ([1]; day 49) was 7.67 mm3. The “Tumour volume (TVol)” value ([1]; day 49) was 0.00 mm3 (5×) and 46.01 mm3, the “Mean TVol” value ([1]; day 53) was 9.89 mm3 and the “Tumour volume (TVol)” value ([1]; day 53) was 0.00 mm3 (5×) and 59.36 mm3. For the same compound, the “Mean TVol” value ([1]; day 56) was 14.65 mm3, the “Tumour volume (TVol)” value ([1]; day 56) was 0.00 mm3 (5×) and 87.90 mm3 and the “Mean TVol” value ([1]; day 60) was 17.60 mm3. The “Tumour volume (TVol)” value ([1]; day 60) was 0.63 mm3 and 0.00 mm3 (4×) and 104.97 mm3, the Best average response (HEC6 xenograft) was -75 and the Best average response (IM95 xenograft) was -90. The Best average response (JHUEM2 xenograft) was 400, the Best average response (LIM2405 xenograft) was 44 and the Best average response (LoVo xenograft) was -20. It also gave a Best average response (OVK18 xenograft) of 500, a Best average response (RKO xenograft) of 300 and a Best average response (RL95.2 xenograft) of -66. It also gave a Best average response (TOV21G xenograft) of 190.
